{"source": "patent US20230192657A1", "about": "“1,2,4-TRIAZOLINONE CB1 INHIBITORS” (Goldfinch Bio, Inc., priority 2020, published 2023)", "biological_target": "CB1 receptor (Homo sapiens, UniProt P21554)", "sequence (P21554 whole entry)": "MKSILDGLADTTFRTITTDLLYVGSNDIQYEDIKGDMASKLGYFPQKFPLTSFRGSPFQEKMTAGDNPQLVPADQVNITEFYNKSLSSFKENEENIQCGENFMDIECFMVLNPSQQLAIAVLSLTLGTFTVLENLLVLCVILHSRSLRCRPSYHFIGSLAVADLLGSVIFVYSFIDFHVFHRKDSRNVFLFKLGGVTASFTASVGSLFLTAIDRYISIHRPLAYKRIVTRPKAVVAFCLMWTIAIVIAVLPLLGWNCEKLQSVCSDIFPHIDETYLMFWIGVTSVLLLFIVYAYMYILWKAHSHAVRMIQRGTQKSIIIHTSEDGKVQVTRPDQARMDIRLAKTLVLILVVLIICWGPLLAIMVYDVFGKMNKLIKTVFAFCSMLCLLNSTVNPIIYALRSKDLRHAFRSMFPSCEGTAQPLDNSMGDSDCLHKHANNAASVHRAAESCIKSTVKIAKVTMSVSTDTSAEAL", "assay": "CB1 cAMP Antagonist Assay (LANCE Ultra cAMP kit)", "format": "cell-based", "settings": "Flp-In CHO cells stably expressing the CB1 receptor; forskolin and CP55940 agonist at EC90; cAMP FRET readout", "source_text": "CB1 cAMP Antagonist Assay\nLANCE Ultra cAMP kit (Perkin Elmer) was used to quantitate the amount of 3′,5′-cyclic adenosine monophosphate (cAMP) produced in Flp-In CHO (Invitrogen) cells stably expressing the CB1 receptor.\nForskolin was initially titrated to determine the response of the cells. The EC90 of forskolin was used for compound testing. CP55940 was titrated and used with EC90 of forskolin to determine the level of agonist stimulation. EC90 of the agonist was used for subsequent compound testing.\nForskolin (Sigma), CP55940 (Cayman Chemicals), and AM251 (MCE) were diluted in 100% DMSO, starting at 100 mM, 1 mM, and 1 mM respectively, in 3-fold serial dilutions. Test compounds were diluted in 100% DMSO starting from 10 mM, 3-fold dilutions. The cAMP assay buffer contains 1x Hank’s Buffered Saline Solution with Ca^2+ and Mg^2+ (Invitrogen), 5.3 mM HEPES (Invitrogen), 0.05% BSA, 0.5 mM IBMX (Sigma).\nFor all assays, cells were harvested, counted, and diluted in cAMP assay buffer to 1× 10^5 cells/mL. Only cells with viability >85% were used for the assay. Cells were seeded at 1000 cells/well in 384-well plates and 10 nL/well AM251 or test compound was added and incubated at 37° C. for 10 min. […] To detect the amount of cAMP produced, 5 µL of a 100x diluted stock of Eu-cAMP tracer and 5 µL of 200x diluted stock of Ulight-anti-cAMP were added to each well, and the plate incubated at 25° C. for 15 min. The FRET signal was read using an EnVision microplate reader (λex=320 nm, λem=615 nm and 665 nm).\nThe IC50 is determined by fitting the percentage of inhibition as a function of compound concentrations with the Hill equation, using a 4-parameter fit in either XLfit or GraphPad Prism.", "note": "pIC50: −log10 of the molar value.", "data": [{"smiles": "NC(=O)Cn1c(N2C[C@H](c3ccccc3)C(c3ccc(Cl)cc3)=N2)nn(Cc2ccc(CN3CCOCC3)cc2)c1=O", "note": "[Compound 145, 2-[3-[(4S)-3-(4-chlorophenyl)-4-phenyl-4,5-dihydro-1H-pyrazol-1-yl]-1-([4-[(morpholin-4-yl)methyl]phenyl]methyl)-5-oxo-4,5-dihydro-1H-1,2,4-triazol-4-yl]acetamide]", "values": [{"measurement": "pIC50", "result": "6.00 to 7.00"}]}, {"smiles": "C[C@H](C(N)=O)n1c(N2C[C@H](c3ccccc3)C(c3ccc(Cl)cc3)=N2)nn(Cc2ccc(Cl)cc2)c1=O", "note": "[Compound 174]", "values": [{"measurement": "pIC50", "result": "> 7.00"}]}, {"smiles": "O=C(O)CCn1c(N2C[C@@]3(CCc4ccccc43)C(c3ccc(Cl)cc3)=N2)nn(-c2ccc(Cl)cc2)c1=O", "note": "[Compound 130]", "values": [{"measurement": "pIC50", "result": "< 5.30"}]}, {"smiles": "Cn1c(N2CC(c3ccccc3)C(c3ccc(Cl)cc3)=N2)nn(Cc2ccc(C(N)=O)cc2)c1=O", "note": "(stereo not drawn) [Compound 192, 4-([3-[3-(4-chlorophenyl)-4-phenyl-4,5-dihydropyrazol-1-yl]-4-methyl-5-oxo-1,2,4-triazol-1-yl]methyl)benzamide]", "values": [{"measurement": "pIC50", "result": "6.00 to 7.00"}]}, {"smiles": "C[C@@H](C(N)=O)n1c(N2C[C@@H](c3ccccc3)C(c3ccc(Cl)cc3)=N2)nn(Cc2ccc(CN3CCOCC3)cc2)c1=O", "note": "[Compound 159]", "values": [{"measurement": "pIC50", "result": "5.30 to 6.00"}]}, {"smiles": "Cn1c(N2C[C@H](c3ccccc3)C(c3ccc(Cl)cc3)=N2)nn(Cc2ccc(Cl)cc2)c1=O", "note": "[Compound 102]", "values": [{"measurement": "pIC50", "result": "6.00 to 7.00"}]}, {"smiles": "COCCn1c(N2C[C@@]3(CCc4ccccc43)C(c3ccc(Cl)cc3)=N2)nn(-c2ccc(Cl)cc2)c1=O", "note": "[Compound 117]", "values": [{"measurement": "pIC50", "result": "< 5.30"}]}, {"smiles": "C[C@@H](c1ccc(Cl)cc1)n1nc(N2CC(c3ccccc3)C(c3ccc(Cl)cc3)=N2)n(CC(N)=O)c1=O", "note": "(stereo in doubt) [Compound 150, 2-[3-[(4S)-3-(4-chlorophenyl)-4-phenyl-4,5-dihydropyrazol-1-yl]-1-[(1S)-1-(4-chlorophenyl)ethyl]-5-oxo-1,2,4-triazol-4-yl]acetamide]", "values": [{"measurement": "pIC50", "result": "6.00 to 7.00"}]}, {"smiles": "COCCn1c(N2C[C@]3(CCc4ccccc43)C(c3ccc(Cl)cc3)=N2)nn(-c2ccc(Cl)cc2)c1=O", "note": "[Compound 110]", "values": [{"measurement": "pIC50", "result": "< 5.30"}]}, {"smiles": "O=c1[nH]nc(N2C[C@@H](c3ccccc3)C(c3ccc(Cl)cc3)=N2)[nH]1", "note": "[Compound 208, 5-[(4R)-3-(4-chlorophenyl)-4-phenyl-4,5-dihydropyrazol-1-yl]-2,4-dihydro-1,2,4-triazol-3-one]", "values": [{"measurement": "pIC50", "result": "< 5.30"}]}, {"smiles": "Cn1c(N2C[C@H](c3ccccc3)C(c3ccc(Cl)cc3)=N2)nn(Cc2ccc(CN3CCOCC3)cc2)c1=O", "note": "[Compound 136, 3-[(4S)-3-(4-chlorophenyl)-4-phenyl-4,5-dihydro-1H-pyrazol-1-yl]-4-methyl-1-([4-[(morpholin-4-yl)methyl]phenyl]methyl)-4,5-dihydro-1H-1,2,4-triazol-5-one]", "values": [{"measurement": "pIC50", "result": "6.00 to 7.00"}]}, {"smiles": "NC(=O)Cn1c(N2C[C@@]3(CCc4ccccc43)C(c3ccc(Cl)cc3)=N2)nn(CC2CCCCC2)c1=O", "note": "[Compound 147, 2-[3-[(1S)-3-(4-chlorophenyl)-1,2,3,5-tetrahydrospiro[indene-1,4-pyrazol]-1-y1]-1-(cyclohexylmethyl)-5-oxo-4,5-dihydro-1H-1,2,4-triazol-4-yl]acetamide]", "values": [{"measurement": "pIC50", "result": "5.30 to 6.00"}]}, {"smiles": "Cc1cc(Cn2nc(N3CC(c4ccccc4)C(c4ccc(Cl)cc4)=N3)n(C)c2=O)ccc1Cl", "note": "(stereo not drawn) [Compound 178]", "values": [{"measurement": "pIC50", "result": "> 7.00"}]}, {"smiles": "C[C@H](C(N)=O)n1c(N2C[C@H](c3ccccc3)C(c3ccc(Cl)cc3)=N2)nn(Cc2ccc(Cl)cn2)c1=O", "note": "[Compound 205]", "values": [{"measurement": "pIC50", "result": "> 7.00"}]}, {"smiles": "CC(C(N)=O)n1c(N2C[C@H](c3ccccc3)C(c3ccc(Cl)cc3)=N2)nn(Cc2ccc(CN3CCOCC3)cc2)c1=O", "note": "(stereo partly drawn) [Compound 167]", "values": [{"measurement": "pIC50", "result": "6.00 to 7.00"}]}, {"smiles": "Cn1c(N2CC(c3ccccc3)C(c3ccc(Cl)cc3)=N2)nn(Cc2cccc(C(=O)O)c2)c1=O", "note": "(stereo not drawn) [Compound 186]", "values": [{"measurement": "pIC50", "result": "< 5.30"}]}, {"smiles": "C[C@H](C(N)=O)n1c(N2C[C@@H](c3ccccc3)C(c3ccc(Cl)cc3)=N2)nn(Cc2ccc(CN3CCOCC3)cc2)c1=O", "note": "[Compound 164]", "values": [{"measurement": "pIC50", "result": "< 5.30"}]}, {"smiles": "Cn1c(N2CC(c3ccccc3)C(c3ccc(Cl)cc3)=N2)nn(Cc2ccc(C(=O)NCCO)cc2)c1=O", "note": "(stereo not drawn) [Compound 173]", "values": [{"measurement": "pIC50", "result": "5.30 to 6.00"}]}]}
